US20260355225A1 (priority 2022, published 2026)
≈ marks a conversion by molar mass, not a printed value. Where “and” joins values, the source holds several entries; their conditions need not be identical. Equal entries are not always repeated.

What was measured:
Vero AD cells = assay: Cytotoxicity of D-xylose, MTT assay, absence of viral infection (Example 1); format: cell-based; conditions: 6 h pre-treatment
Method: (§1) Cells (Vero E6) were used, with two modes of administration: either at the same time or 6 h before infection with SARS-CoV-2 (isolated early).
(§2) The readout for this test is CPE, so the infection will be stopped at 72 hpi (hours post-infection), and the compound will remain for the duration of the experiment. In parallel, the cytotoxicity of the same compound concentrations will be tested in the absence of viral infection.
(§3) The day before the experiment, the 8,000 cells/well are seeded in two 96-well plates (clear, Sarstedt), one for the antiviral study and one for the cytotoxicity study.
(§4) 134.4 μl of the 1 M composition is transferred to 1,465.6 μl of infection medium (=84 mM, twice the final maximum concentration).
(§5) Next, the cell support in the cytotoxicity plate is removed.
(§6) Immediately afterwards, 50 μl of undiluted infection medium is added to all the wells.
(§7) Next, 50 μl of infection medium without diluent is added to columns 4 to 6.
(§8) Next, the plate is incubated at 37 °C, 5% CO2 for 48 h.
(§9) After 72 h, when the CPE is evident, an MTT assay is performed for the antiviral and cytotoxicity plates.

[1] = as above; format: cell-based; conditions: monkey, vero cells
Method: as §1, §2, §3, §4, §5, §6, §7, §8, §9

HIV-1 NL4-3 = assay: Antiviral assay against HIV-1 NL4-3, percentage of infected cells by immunofluorescence (Example 2); conditions: Human immunodeficiency virus 1, NL43, 48 h
[2] = as above; conditions: human, hela tzmbl cells, Viability Percentages, D-xylose 104.000 mM, replicate wells
[3] = according to Sigma cat #1.08689; cited from earlier work
[4] = D-xylose absorption tests; cited from earlier work
[5] = Cytotoxicity of D-xylose alone or + insulin, MTT assay, absence of viral infection (Example 2); conditions: human, hela tzmbl cells
HeLa TZMBL cells = assay: as above; conditions: for Cytotoxicity percentage / Viability percentage: 2880 min
cells = conditions: cited from earlier work
[6] = tested on: glycated hemoglobin (HbA1c); conditions: healthy person; cited from earlier work
SARS-CoV-2 = assay: Antiviral assay, inhibition of virus-induced cytopathic effect (CPE) of SARS-CoV-2 by MTT assay (Example 1); conditions: for Viability percentage: 4320 min
glycosaminoglycans = conditions: fibroblasts, keranocytes, CHO, BHK, BAE and other cells; cited from earlier work

Structure (SMILES): O=C[C@H](O)[C@@H](O)[C@H](O)CO [D-xylose]
- Viability percentage (Vero AD cells; 0.328125 mM, 328.125 µM): 119.81%
- Viability percentage (Vero AD cells; 0.65625 mM, 656.25 µM): 100.84% and 108.33%
- Cytotoxicity percentage (Vero AD cells; 1.3125 mM, 1312.5 µM): −21.81% and −24.31% and −17.82%
- Viability percentage (Vero AD cells; 1.3125 mM, 1312.5 µM): 124.31% and 117.82%
- Viability percentage (Vero AD cells; 2.625 mM, 2625 µM): 118.32% and 114.82%
- Cytotoxicity percentage (Vero AD cells; 5.25 mM, 5250 µM): −15.32% and −18.81% and −10.83%
- Viability percentage (Vero AD cells; 5.25 mM, 5250 µM): 118.81% and 110.83%
- Cytotoxicity percentage (Vero AD cells; 10.5 mM, 10500 µM): −9.33% and −10.83% and −6.33%
- Viability percentage (Vero AD cells; 10.5 mM, 10500 µM): 110.83% and 106.33%
- Cytotoxicity percentage (Vero AD cells; 21 mM, 21000 µM): −9.83% and −10.33%
- Viability percentage (Vero AD cells; 21 mM, 21000 µM): 110.33%
- Cytotoxicity percentage (Vero AD cells; 42 mM, 42000 µM): −7.83% and −9.83% and −3.34%
- Viability percentage (Vero AD cells; 42 mM, 42000 µM): 103.34%
- viability at 328.125 µM ([1]; 6 h pre-treatment, 0.328125 mM, read-out: Viability percentage): 130%
- viability at 656.25 µM ([1]; 6 h pre-treatment, 0.65625 mM, read-out: Viability percentage): 90.9%
- viability at 1312.5 µM ([1]; 6 h pre-treatment, 1.3125 mM, read-out: Viability percentage): 122%
- viability at 2625 µM ([1]; 6 h pre-treatment, 2.625 mM, read-out: Viability percentage): 108%
- viability at 5250 µM ([1]; 6 h pre-treatment, 5.25 mM, read-out: Viability percentage): 115%
- viability at 10500 µM ([1]; 6 h pre-treatment, 10.5 mM, read-out: Viability percentage): 109%
- viability at 21000 µM ([1]; 6 h pre-treatment, 21 mM, read-out: Viability percentage): 110%
- viability at 42000 µM ([1]; 6 h pre-treatment, 42 mM, read-out: Viability percentage): 108%
- CC50 ([1]; MTT, no virus): > 42 mM
- activity at 1625 µM (HIV-1 NL4-3; read-out: % Infection, D-xylose 1.625 mM, replicate wells): 20.8%
- activity at 3250 µM (HIV-1 NL4-3; read-out: % Infection, D-xylose 3.250 mM, replicate wells): 20.4%
- activity at 6500 µM (HIV-1 NL4-3; read-out: % Infection, D-xylose 6.500 mM, replicate wells): 18.1%
- activity at 13000 µM (HIV-1 NL4-3; read-out: % Infection, D-xylose 13.000 mM, replicate wells): 20.4%
- activity at 26000 µM (HIV-1 NL4-3; read-out: % Infection, D-xylose 26.000 mM, replicate wells): 20.6%
- activity at 52000 µM (HIV-1 NL4-3; read-out: % Infection, D-xylose 52.000 mM, replicate wells): 20.2%
- activity at 104000 µM (HIV-1 NL4-3; read-out: % Infection, D-xylose 104.000 mM, replicate wells): 14.9%
- viability at 48 h, 104000 µM [2]: 20.8%
- solubility [3]: 550 mg/mL (≈ 3660 mM)
- side effects [4]: laxative effects in adults, diarrhea, nausea, and vomiting
- cytotoxicity at 48 h, 3250 µM ([5]; Cytotoxicity percentage, D-xylose 3.25 mM): 5.24%
- cytotoxicity at 48 h, 26000 µM ([5]; Cytotoxicity percentage, D-xylose 26 mM): 9.04%
- cytotoxicity at 48 h, 52000 µM ([5]; Cytotoxicity percentage, D-xylose 52 mM): 12.1%
- cytotoxicity at 48 h, 104000 µM ([5]; Cytotoxicity percentage, D-xylose 104 mM): 14.1%
- viability at 48 h, 1625 µM ([5]; Viability percentage, D-xylose 1.625 mM): 99.5%
- viability at 48 h, 3250 µM ([5]; Viability percentage, D-xylose 3.25 mM): 94.8%
- viability at 48 h, 6500 µM ([5]; Viability percentage, D-xylose 6.5 mM): 89.8%
- viability at 48 h, 13000 µM ([5]; Viability percentage, D-xylose 13 mM): 90.1%
- viability at 48 h, 26000 µM ([5]; Viability percentage, D-xylose 26 mM): 91%
- viability at 48 h, 52000 µM ([5]; Viability percentage, D-xylose 52 mM): 87.9%
- viability at 48 h, 104000 µM ([5]; Viability percentage, D-xylose 104 mM): 85.9%
- median cytotoxic concentration (TC50) (HeLa TZMBL cells; 48 h, MTT): 260.3
- Results for Cytotoxicity (MTT readout) (HeLa TZMBL cells; D-xylose 1.625 mM): 2.399 and 2.351 and 2.424
- Cytotoxicity percentage (HeLa TZMBL cells; D-xylose 1.625 mM, 1625 µM): 0.47% and 2.50% and −0.58%
- Viability percentage (HeLa TZMBL cells; D-xylose 1.625 mM, 1625 µM): 97.50% and 100.58%
- Results for Cytotoxicity (MTT readout) (HeLa TZMBL cells; D-xylose 3.25 mM): 2.286 and 2.266 and 2.242
- Cytotoxicity percentage (HeLa TZMBL cells; D-xylose 3.25 mM, 3250 µM): 6.09% and 7.10%
- Viability percentage (HeLa TZMBL cells; D-xylose 3.25 mM, 3250 µM): 93.91% and 92.90%
- Results for Cytotoxicity (MTT readout) (HeLa TZMBL cells; D-xylose 6.5 mM): 2.168 and 2.211 and 2.316
- Cytotoxicity percentage (HeLa TZMBL cells; D-xylose 6.5 mM, 6500 µM): 10.22% and 8.41% and 3.98%
- Viability percentage (HeLa TZMBL cells; D-xylose 6.5 mM, 6500 µM): 91.59% and 96.02%
- Results for Cytotoxicity (MTT readout) (HeLa TZMBL cells; D-xylose 13 mM): 2.175 and 2.293 and 2.032
- Viability percentage (HeLa TZMBL cells; D-xylose 13 mM, 13000 µM): 95.05% and 84.04%
- Results for Cytotoxicity (MTT readout) (HeLa TZMBL cells; D-xylose 26 mM): 2.196 and 2.137 and 2.158
- Cytotoxicity percentage (HeLa TZMBL cells; D-xylose 26 mM, 26000 µM): 11.53% and 10.64%
- Viability percentage (HeLa TZMBL cells; D-xylose 26 mM, 26000 µM): 88.47% and 89.36%
- Results for Cytotoxicity (MTT readout) (HeLa TZMBL cells; D-xylose 52 mM): 2.123 and 2.266 and 2.199
- Cytotoxicity percentage (HeLa TZMBL cells; D-xylose 52 mM, 52000 µM): 6.09% and 8.91%
- Viability percentage (HeLa TZMBL cells; D-xylose 52 mM, 52000 µM): 93.91% and 91.09%
- Results for Cytotoxicity (MTT readout) (HeLa TZMBL cells; D-xylose 104 mM): 2.075 and 2.027 and 2.064
- Cytotoxicity percentage (HeLa TZMBL cells; D-xylose 104 mM, 104000 µM): 16.17% and 14.61%
- Viability percentage (HeLa TZMBL cells; D-xylose 104 mM, 104000 µM): 83.83% and 85.39%
- xylose in cytosol at equilibrium (cells; in the presence of insulin): 80%
- xylose in plasma at equilibrium (cells; in the presence of insulin): 20%
- increase of penetration rate of D-xylose into the cells (cells; with insulin): two to five times
- effect on glycated hemoglobin (HbA1c) levels [6]: little or no effect
- absorbance at 570 nm (SARS-CoV-2; 6 h pre-treatment, 0.328125 mM): 0.067 and 0.073 and 0.088
- absorbance at 570 nm (SARS-CoV-2; 6 h pre-treatment, 0.65625 mM): 0.08 and 0.081 and 0.085
- Viability percentage (SARS-CoV-2; 6 h pre-treatment, 0.65625 mM, 656.25 µM): −8.66% and −7.49% and −2.79%
- absorbance at 570 nm (SARS-CoV-2; 6 h pre-treatment, 1.3125 mM): 0.08 and 0.099 and 0.091
- absorbance at 570 nm (SARS-CoV-2; 6 h pre-treatment, 2.625 mM): 0.075 and 0.121 and 0.124
- absorbance at 570 nm (SARS-CoV-2; 6 h pre-treatment, 5.25 mM): 0.087 and 0.106 and 0.098
- absorbance at 570 nm (SARS-CoV-2; 6 h pre-treatment, 10.5 mM): 0.102 and 0.096
- absorbance at 570 nm (SARS-CoV-2; 6 h pre-treatment, 21 mM): 0.116 and 0.109 and 0.098
- absorbance at 570 nm (SARS-CoV-2; 6 h pre-treatment, 42 mM): 0.095 and 0.09 and 0.108
- viability at 10500 µM (SARS-CoV-2; Severe acute respiratory syndrome coronavirus 2, Vero C1008, in Chlorocebus sabaeus, 72 h, read-out: Viability percentage, 6 h pre-treatment, 10.5 mM): 17.2%
- viability at 656.25 µM (SARS-CoV-2; Severe acute respiratory syndrome coronavirus 2, Vero C1008, in Chlorocebus sabaeus, 72 h, read-out: Viability percentage, at time of infection, 0.65625 mM): 10.1%
- IC50 (SARS-CoV-2; Severe acute respiratory syndrome coronavirus 2, co-administration of D-xylose and SARS-CoV-2): 95.5 mM
- IC50 (SARS-CoV-2; Severe acute respiratory syndrome coronavirus 2, pre-incubation of D-xylose 6 h prior to SARS-CoV-2 infection): 26.2 mM
- absorbance at 570 nm (SARS-CoV-2; at time of infection, 0.328125 mM): 0.088 and 0.087
- Viability percentage (SARS-CoV-2; at time of infection, 0.328125 mM, 328.125 µM): 0.73% and −0.44%
- absorbance at 570 nm (SARS-CoV-2; at time of infection, 0.65625 mM): 0.096 and 0.099 and 0.101
- Viability percentage (SARS-CoV-2; at time of infection, 0.65625 mM, 656.25 µM): 13.66% and 16.01%
- absorbance at 570 nm (SARS-CoV-2; at time of infection, 1.3125 mM): 0.096 and 0.094 and 0.091
- Viability percentage (SARS-CoV-2; at time of infection, 1.3125 mM, 1312.5 µM): 7.78% and 4.26%
- absorbance at 570 nm (SARS-CoV-2; at time of infection, 2.625 mM): 0.141 and 0.113 and 0.103
- absorbance at 570 nm (SARS-CoV-2; at time of infection, 5.25 mM): 0.09 and 0.137 and 0.126
- absorbance at 570 nm (SARS-CoV-2; at time of infection, 10.5 mM): 0.109 and 0.131 and 0.107
- absorbance at 570 nm (SARS-CoV-2; at time of infection, 21 mM): 0.111 and 0.151 and 0.113
- absorbance at 570 nm (SARS-CoV-2; at time of infection, 42 mM): 0.059 and 0.095 and 0.09
- stimulation of glycosaminoglycans (glycosaminoglycans): proven glycosaminoglycan stimulators of several cell types
